The text below walks through data of patent US20180099931A1 (AbbVie S.à.r.l., priority 2016, published 2018).

This assay has as its target T1, F508delCFTR (Homo sapiens, UniProt P13569, DEL508-508).
T1 construct: expressed in transfected cells; host or cells: CFBE41o- human lung-derived epithelial cells (CFBE4lo-F508delCFTR-HRP), doxycycline-inducible
In words: Cell Surface Expression-Horse Radish Peroxidase (CSE-HRP) Assay.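 As to Maximum % activity (with co-corrector): co-corrector and positive control are both the same reference corrector at 2 µM.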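 As to Maximum % activity (without co-corrector): percent of the 2 µM on-plate positive control corrector response above DMSO.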 The class given is cell-based. The settings on record: for Maximum % activity (with co-corrector) / Emax: maximum at any tested concentration, normalized to on-plate positive control; for Emax: read-out: Maximum % activity (without co-corrector).

Setting [1] is: CSE-HRP, test compound without co-corrector, read-out: EC50 (without co-corrector).
[2] abbreviates: CSE-HRP, with co-corrector (2 μM of 3-[(2R,4R)-4-({[1-(2,2-difluoro-1,3-benzodioxol-5-yl)cyclopropyl]carbonyl}amino)-7-methoxy-3,4-dihydro-2H-chromen-2-yl]benzoic acid), read-out: EC50 (with co-corrector).
Setting [3] is: CSE-HRP, with co-corrector (2 μM).
[4] abbreviates: test compound without co-corrector.
Setting [5] is: test compound without co-corrector, read-out: EC50 (without co-corrector).
The mark [6] stands for this setting: with co-corrector (2 μM of 3-[(2R,4R)-4-({[1-(2,2-difluoro-1,3-benzodioxol-5-yl)cyclopropyl]carbonyl}amino)-7-methoxy-3,4-dihydro-2H-chromen-2-yl]benzoic acid).
The mark [7] stands for this setting: with co-corrector (2 μM of 3-[(2R,4R)-4-({[1-(2,2-difluoro-1,3-benzodioxol-5-yl)cyclopropyl]carbonyl}amino)-7-methoxy-3,4-dihydro-2H-chromen-2-yl]benzoic acid), read-out: EC50 (with co-corrector).

SMILES strings stand for the structures. pEC50: −log10 of the molar value. Read-outs that look alike come from different tables or passages of the source.

T1 sequence (P13569 with tags, fused parts or gaps DEL508-508): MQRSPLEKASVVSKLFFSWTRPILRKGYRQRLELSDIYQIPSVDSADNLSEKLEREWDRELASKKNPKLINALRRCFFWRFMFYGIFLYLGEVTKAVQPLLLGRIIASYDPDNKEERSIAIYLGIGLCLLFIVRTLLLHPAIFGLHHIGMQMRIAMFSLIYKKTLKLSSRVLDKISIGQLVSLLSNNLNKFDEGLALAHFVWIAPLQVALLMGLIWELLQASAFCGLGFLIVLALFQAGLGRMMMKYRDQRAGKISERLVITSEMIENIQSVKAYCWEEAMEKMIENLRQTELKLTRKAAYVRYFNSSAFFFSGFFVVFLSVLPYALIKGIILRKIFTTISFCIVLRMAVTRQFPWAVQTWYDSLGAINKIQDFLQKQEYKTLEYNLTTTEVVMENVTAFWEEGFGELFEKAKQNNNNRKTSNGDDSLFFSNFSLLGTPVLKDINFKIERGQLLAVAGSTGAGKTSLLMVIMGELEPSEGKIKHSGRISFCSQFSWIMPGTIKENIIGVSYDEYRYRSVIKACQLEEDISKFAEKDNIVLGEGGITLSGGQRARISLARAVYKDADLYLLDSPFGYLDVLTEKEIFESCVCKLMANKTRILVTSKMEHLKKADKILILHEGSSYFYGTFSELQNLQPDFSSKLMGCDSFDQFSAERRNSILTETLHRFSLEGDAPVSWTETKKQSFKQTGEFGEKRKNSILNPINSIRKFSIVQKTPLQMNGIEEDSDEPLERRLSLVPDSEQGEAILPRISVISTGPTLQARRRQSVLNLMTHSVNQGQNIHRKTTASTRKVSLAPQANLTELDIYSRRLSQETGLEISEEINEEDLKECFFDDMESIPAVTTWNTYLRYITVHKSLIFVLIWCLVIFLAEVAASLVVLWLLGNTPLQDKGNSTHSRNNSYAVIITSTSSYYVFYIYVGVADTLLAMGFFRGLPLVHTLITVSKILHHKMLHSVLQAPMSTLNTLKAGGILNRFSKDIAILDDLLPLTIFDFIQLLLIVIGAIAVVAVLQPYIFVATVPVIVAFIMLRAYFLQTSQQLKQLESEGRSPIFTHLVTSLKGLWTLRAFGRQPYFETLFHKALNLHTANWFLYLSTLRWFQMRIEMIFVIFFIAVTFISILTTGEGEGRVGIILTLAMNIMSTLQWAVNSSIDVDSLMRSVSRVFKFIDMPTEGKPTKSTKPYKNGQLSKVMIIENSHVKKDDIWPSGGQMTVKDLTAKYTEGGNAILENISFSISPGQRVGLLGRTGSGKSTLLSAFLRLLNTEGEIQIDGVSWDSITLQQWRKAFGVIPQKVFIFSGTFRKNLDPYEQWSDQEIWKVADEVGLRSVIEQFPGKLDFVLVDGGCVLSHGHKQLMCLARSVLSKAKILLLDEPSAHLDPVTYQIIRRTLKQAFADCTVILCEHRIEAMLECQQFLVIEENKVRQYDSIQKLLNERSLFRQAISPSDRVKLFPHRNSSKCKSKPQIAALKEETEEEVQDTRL

As to `COc1cc(C(C)(C)C)ccc1CN[C@H]1[C@H](C(C)(C)C)[C@@H](C(=O)O)N(C(=O)C2CCCCC2)[C@H]1c1ccccc1` [II-103], the negative logarithm of the EC50 (pEC50) – broadly, the negative decadic logarithm of the EC50, by convention in mol/L – runs as follows: under setting [1], 5.00 to 6.00; under setting [2], 5.00 to 6.00. The “Maximum % activity (with co-corrector)” value under setting [3] is “+++ (≥350)”. Further, the Emax (CSE-HRP, without co-corrector) lay in the range of 100 to 200%.

For `COc1cc(C(F)(F)F)ccc1CN[C@H]1[C@H](C23CC(C2)C3)[C@@H](C(=O)O)N(C(=O)C2CCCCC2)[C@H]1c1ccccc1` [II-470], the Emax under setting [4] lay in the range of 100 to 200%. Further, the pEC50 under setting [5] was 5.00 to 6.00 and the pEC50 under setting [7] is more than 6.00. Moreover, the “Maximum % activity (with co-corrector)” value under setting [6] is given as “+++ (≥350)”.

Regarding `COc1cc(C)ccc1CN[C@H]1[C@H](C(C)(C)C)[C@@H](C(=O)O)N(C(=O)[C@@H]2CCCCO2)[C@H]1c1cccnc1OC` [II-123], the negative logarithm of the EC50 (pEC50) was 5.00 to 6.00 under setting [1] and 5.00 to 6.00 under setting [2]. For the same molecule, the “Maximum % activity (with co-corrector)” value under setting [3] was “++ (≥150 and <350)”. Moreover, the Emax (CSE-HRP, without co-corrector) is less than 100%.

`COc1ncc(C2CCC2)cc1CN[C@H]1[C@H](C(C)(C)C)[C@@H](C(=O)O)N(C(=O)[C@H]2CCCCO2)[C@H]1c1ccccc1F` [II-566]: the Emax under setting [4] lay in the range of 100 to 200%. Also, the pEC50 by setting is: under setting [5], 5.00 to 6.00; under setting [7], 5.00 to 6.00. Further, the “Maximum % activity (with co-corrector)” value under setting [6] was “+++ (≥350)”.

Take `COc1ccc(C(C)(C)C)cc1CN[C@H]1[C@H](C(C)(C)C)[C@@H](C(=O)O)N(C(=O)OC(C)C)[C@H]1c1ccccc1C` [II-582]: the Emax under setting [4] is more than 200%. Also, the negative-log EC50 (pEC50) runs as follows: under setting [5], 5.00 to 6.00; under setting [7], more than 6.00. The “Maximum % activity (with co-corrector)” value under setting [6] is on record as “+++ (≥350)”.

For `COc1ccc(C(C)(C)C)cc1CN[C@H]1[C@H](C(C)(C)C)[C@@H](C(=O)O)N(C(=O)c2c(OC)cnn2C)[C@H]1c1ccccc1` [II-207], the pEC50 reads like this: under setting [1], 5.00 to 6.00; under setting [2], 5.00 to 6.00. Moreover, the “Maximum % activity (with co-corrector)” value under setting [3] is on record as “+++ (≥350)”. Besides, the Emax (CSE-HRP, without co-corrector) was in the range of 100 to 200%.

With `COc1ccc(C(C)(C)C)cc1CN[C@H]1[C@H](C(C)(C)C)[C@@H](C(=O)O)N(C(=O)OC(C)C)[C@H]1c1cccnc1OC(C)C` [III-229], the Emax under setting [4] was more than 200%. For the same molecule, the pEC50 is 5.00 to 6.00 under setting [5] and more than 6.00 under setting [7]. Further, the “Maximum % activity (with co-corrector)” value (with co-corrector (2 μM)) was “+++ (≥350)”.

On to `COc1ncc(C2CCC2)cc1CN[C@H]1[C@H](C(C)(C)C)[C@@H](C(=O)O)N(C(=O)[C@@H]2CCCC(F)(F)C2)[C@H]1c1ccccc1` [Example 69, (2S,3S,4S,5S)-3-tert-butyl-4-{[(5-cyclobutyl-2-methoxypyridin-3-yl)methyl]amino}-1-[(1R)-3,3-difluorocyclohexane-1-carbonyl]-5-phenylpyrrolidine-2-carboxylic acid], for which the pEC50 reads like this: under setting [5], more than 6.00; under setting [7], more than 6.00. Moreover, for the setting “with co-corrector (2 μM)”, the “Maximum % activity (with co-corrector)” value is recorded as “+++ (≥350)”. Moreover, the Emax (without co-corrector) is more than 200%.

Turning to `COc1ncc(C(F)(F)F)cc1N[C@H]1[C@H](C(C)(C)C)[C@@H](C(=O)O)N(C(=O)C2CCCC(F)(F)C2)[C@H]1c1cccnc1N(C)C` (stereo partly drawn) [II-488], the Emax under setting [4] was less than 100%. Also, the pEC50 under setting [5] was 5.00 to 6.00 and the negative logarithm of the EC50 (pEC50) under setting [7] is 5.00 to 6.00. The “Maximum % activity (with co-corrector)” value under setting [6] is “++ (≥150 and <350)”.

Take `CCC(CC)Cc1ccc(OC)c(CN[C@H]2[C@H](C(C)(C)C)[C@@H](C(=O)O)N(C(=O)C3CCCCC3)[C@H]2c2ccccc2)c1` [III-170]: the Emax under setting [4] is more than 200%. Also, the negative-log EC50 (pEC50) by setting is: under setting [5], more than 6.00; under setting [7], more than 6.00. For the same molecule, for the setting “with co-corrector (2 μM)”, the “Maximum % activity (with co-corrector)” value was “+++ (≥350)”.

Consider `CC(C)(C)[C@@H]1[C@@H](NCc2ccc(Cl)cc2Cl)[C@@H](c2ccccc2)N(C(=O)CC2CCCC2)[C@H]1C(=O)O` (racemic) [III-3], for which, under setting [4], the Emax is less than 100%. In addition, the pEC50 is, setting by setting: under setting [5], less than 5.00; under setting [7], 5.00 to 6.00. Moreover, the “Maximum % activity (with co-corrector)” value under setting [6] was “++ (≥150 and <350)”.

As to `COc1cc(F)c(F)cc1CN[C@H]1[C@H](C(C)(C)C)[C@@H](C(=O)O)N(C(=O)C2CCCCC2)[C@H]1c1ccccc1` [II-128], the pEC50 runs as follows: under setting [1], 5.00 to 6.00; under setting [2], 5.00 to 6.00. Besides, the “Maximum % activity (with co-corrector)” value under setting [3] was “+++ (≥350)”. The Emax (CSE-HRP, without co-corrector) was 100 to 200%.

`COc1ccc(C2(C)CCC2)cc1CN[C@H]1[C@H](C(C)(C)C)[C@@H](C(=O)O)N(C(=O)[C@@H]2CCCO2)[C@H]1c1cccnc1N(C)C` [Example I-283]: the pEC50 was 5.00 to 6.00 under setting [1] and 5.00 to 6.00 under setting [2]. Besides, under setting [3], the “Maximum % activity (with co-corrector)” value is listed as “+++ (≥350)”. The Emax (CSE-HRP, without co-corrector) was more than 200%.

Turning to `COc1ccc(CN[C@@H]2[C@@H](C(C)(C)C)[C@H](C(=O)O)N(C(=O)C3CCCCC3)[C@@H]2c2ccccc2)cn1` (racemic) [III-25], the Emax under setting [4] was less than 100%. Moreover, the negative logarithm of the EC50 (pEC50) is, setting by setting: under setting [5], less than 5.00; under setting [7], 5.00 to 6.00. Also, under setting [6], the “Maximum % activity (with co-corrector)” value is “++ (≥150 and <350)”.

Turning to `COc1cc(C(F)(F)F)ccc1CN[C@@H]1[C@@H](C(C)(C)C)[C@H](C(=O)O)N(C(=O)[C@H](C)c2ccccc2)[C@@H]1c1ccccc1` [Example I-45], the pEC50 by setting is: under setting [5], less than 5.00; under setting [7], less than 5.00. The “Maximum % activity (with co-corrector)” value (with co-corrector (2 μM)) is “+ (<150)”. For the same molecule, where the note is “without co-corrector”, the Emax was less than 100%.

Consider `COc1cc(C(F)(F)F)ccc1CN[C@@H]1[C@@H](C(C)(C)C)[C@H](C(=O)O)N(C(=O)C2CCCCC2)[C@@H]1c1ccccc1OC` [III-95], for which the Emax under setting [4] is less than 100%. The negative-log EC50 (pEC50) reads like this: under setting [5], less than 5.00; under setting [7], 5.00 to 6.00. Further, under “with co-corrector (2 μM)”, the “Maximum % activity (with co-corrector)” value is “++ (≥150 and <350)”.

With `COc1ccc(C(C)(C)C)cc1CN[C@@H]1[C@@H](C(C)(C)C)[C@H](C(=O)O)N(C(=O)OC(C)C)[C@@H]1c1ccccc1` (racemic) [II-43], the negative-log EC50 (pEC50) reads like this: under setting [1], 5.00 to 6.00; under setting [2], 5.00 to 6.00. The “Maximum % activity (with co-corrector)” value under setting [3] is “+++ (≥350)”. Where the note is “CSE-HRP, without co-corrector”, the Emax was more than 200%.

For the molecule `CC(C)(C)[C@H]1[C@H](NCc2coc3ccccc23)[C@H](c2ccccc2)N(C(=O)C2CCCCC2)[C@@H]1C(=O)O` [II-100], the negative-log EC50 (pEC50) by setting is: under setting [1], 5.00 to 6.00; under setting [2], 5.00 to 6.00. For the same molecule, the “Maximum % activity (with co-corrector)” value under setting [3] was “++ (≥150 and <350)”. Besides, the Emax (CSE-HRP, without co-corrector) was less than 100%.

For the molecule `COc1ccc(C(C)(C)C)cc1CN[C@H]1[C@H](C(C)(C)C)[C@@H](C(=O)O)N(C(=O)[C@H]2[C@H](C(F)(F)F)[C@H]3CC[C@@H]2O3)[C@H]1c1ccccc1OC(F)F` (relative stereo) [Example I-223], the pEC50 is, setting by setting: under setting [5], 5.00 to 6.00; under setting [7], more than 6.00. The “Maximum % activity (with co-corrector)” value (with co-corrector (2 μM)) is “+++ (≥350)”. Further, the Emax (without co-corrector) lay in the range of 100 to 200%.

In the case of `COc1ccc(C(F)(F)F)cc1CN[C@H]1[C@H](C(C)(C)C)[C@@H](C(=O)O)N(C(=O)[C@@H]2CCCCO2)[C@H]1c1ccccc1Br` [Example I-290], the pEC50 runs as follows: under setting [1], 5.00 to 6.00; under setting [2], 5.00 to 6.00. The “Maximum % activity (with co-corrector)” value under setting [3] is “+++ (≥350)”. Moreover, the Emax (CSE-HRP, without co-corrector) is more than 200%.

On to `COc1ccc(C(C)(C)C)cc1CN[C@H]1[C@H](C(C)(C)C)[C@@H](C(=O)O)N(C(=O)c2cnn(C(C)(C)C)c2C(F)(F)F)[C@H]1c1ccccc1` [II-360], for which the Emax under setting [4] fell in the range of 100 to 200%. The pEC50 under setting [5] is 5.00 to 6.00 and the negative logarithm of the EC50 (pEC50) under setting [7] is more than 6.00. The “Maximum % activity (with co-corrector)” value under setting [6] is listed as “+++ (≥350)”.
